ChEMBL document CHEMBL6071188, “Synthesis and In Vivo Profiling of Desymmetrized Antimalarial Trioxolanes with Diverse Carbamate Side Chains” (ACS Med Chem Lett, 2024)
Values after ≈ are worked out from the molar mass of the structure shown.

Tests used:
[1] = Metabolic stability in human liver microsomes assessed as intrinsic clearance; type: ADME, Microsome; details: for microsomal intrinsic clearance: microsomes; for microsomal CLint: liver microsomes, read-out: CLH
[2] = Solubility of the compound in PBS buffer at pH 7.4; type: physicochemical

SMILES | microsomal intrinsic clearance [1] [µL/min/mg] | solubility kinetic [2] [µM] | microsomal CLint [1] [µL/min/mg]
CCCC1(O)CN(C(=O)O[C@H]2CCC[C@@]3(C2)OOC2(O3)C3CC4CC(C3)CC2C4)C1 (some centres undefined) | 683 | 18.2 (≈ 7.67 µg/mL) | –
CS(=N)(=O)C1CN(C(=O)O[C@@H]2CCC[C@]3(C2)OOC2(O3)C3CC4CC(C3)CC2C4)C1 (some centres undefined) | 234 | 268 (≈ 118 µg/mL) | –
CCC1(O)CN(C(=O)O[C@H]2CCC[C@@]3(C2)OOC2(O3)C3CC4CC(C3)CC2C4)C1 (some centres undefined) | 638 | 41.5 (≈ 16.9 µg/mL) | –
CN1CCN(C(=O)O[C@H]2CCC[C@@]3(C2)OOC2(O3)C3CC4CC(C3)CC2C4)CC1 (some centres undefined) | – | 109 (≈ 44.3 µg/mL) | –
O=C(O[C@H]1CCC[C@@]2(C1)OOC1(O2)C2CC3CC(C2)CC1C3)N1CC(O)(C(F)(F)F)C1 (some centres undefined) | 211 | 10.8 (≈ 4.83 µg/mL) | –
CS(=O)(=O)C1CN(C(=O)O[C@@H]2CCC[C@]3(C2)OOC2(O3)C3CC4CC(C3)CC2C4)C1 (some centres undefined) | 526 | 66.7 (≈ 29.5 µg/mL) | –
CC(C)(CN)CNC(=O)O[C@@H]1CCC[C@]2(C1)OOC1(O2)C2CC3CC(C2)CC1C3 (some centres undefined) | – | – | 14.3
N[C@@H]1CCCN(C(=O)O[C@H]2CCC[C@@]3(C2)OOC2(O3)C3CC4CC(C3)CC2C4)C1 (some centres undefined) | 52.7 | 129 (≈ 52.4 µg/mL) | –
C[S+]([O-])C1CN(C(=O)O[C@H]2CCC[C@@]3(C2)OOC2(O3)C3CC4CC(C3)CC2C4)C1 (some centres undefined) | 750 | 184 (≈ 78.3 µg/mL) | –
O=C(O[C@@H]1CCC[C@]2(C1)OOC1(O2)C2CC3CC(C2)CC1C3)N1CCNCC1 (some centres undefined) | – | 144 (≈ 56.5 µg/mL) | 39.4
NCCC1CCN(C(=O)O[C@H]2CCC[C@@]3(C2)OOC2(O3)C3CC4CC(C3)CC2C4)CC1 (some centres undefined) | 92.7 | 117 (≈ 50.8 µg/mL) | –
C[S+]([O-])C1CN(C(=O)O[C@@H]2CCC[C@]3(C2)OOC2(O3)C3CC4CC(C3)CC2C4)C1 (some centres undefined) | 516 | 138 (≈ 58.7 µg/mL) | –
N[C@@H]1CCN(C(=O)O[C@H]2CCC[C@@]3(C2)OOC2(O3)C3CC4CC(C3)CC2C4)C1 (some centres undefined) | 58.7 | – | –
N[C@H]1CC[C@H](NC(=O)O[C@H]2CCC[C@@]3(C2)OOC2(O3)C3CC4CC(C3)CC2C4)CC1 (some centres undefined) | 28.2 | – | –
CS(=N)(=O)CCNC(=O)O[C@H]1CCC[C@@]2(C1)OOC1(O2)C2CC3CC(C2)CC1C3 (some centres undefined) | 319 | 129 (≈ 55.3 µg/mL) | –
CC(C)C1(O)CN(C(=O)O[C@H]2CCC[C@@]3(C2)OOC2(O3)C3CC4CC(C3)CC2C4)C1 (some centres undefined) | 657 | 15.1 (≈ 6.37 µg/mL) | –
CC(C)(CN)CNC(=O)O[C@H]1CCC[C@@]2(C1)OOC1(O2)C2CC3CC(C2)CC1C3 (some centres undefined) | – | 164 (≈ 67 µg/mL) | 21.4
O=C(O[C@H]1CCC[C@@]2(C1)OOC1(O2)C2CC3CC(C2)CC1C3)N1CCNCC1 (some centres undefined) | 120 | 167 (≈ 65.5 µg/mL) | –
CS(=O)(=O)C1CN(C(=O)O[C@H]2CCC[C@@]3(C2)OOC2(O3)C3CC4CC(C3)CC2C4)C1 (some centres undefined) | 851 | 81.1 (≈ 35.8 µg/mL) | –
CS(=N)(=O)CCNC(=O)O[C@@H]1CCC[C@]2(C1)OOC1(O2)C2CC3CC(C2)CC1C3 (some centres undefined) | 243 | 128 (≈ 54.9 µg/mL) | –
N=S(=O)(CCNC(=O)O[C@@H]1CCC[C@]2(C1)OOC1(O2)C2CC3CC(C2)CC1C3)C1CC1 (some centres undefined) | 435 | 79.3 (≈ 36 µg/mL) | –
CS(=N)(=O)C1CN(C(=O)O[C@H]2CCC[C@@]3(C2)OOC2(O3)C3CC4CC(C3)CC2C4)C1 (some centres undefined) | 431 | 142 (≈ 62.6 µg/mL) | –
CCCC1(O)CN(C(=O)O[C@@H]2CCC[C@]3(C2)OOC2(O3)C3CC4CC(C3)CC2C4)C1 (some centres undefined) | 579 | 16.1 (≈ 6.79 µg/mL) | –
NCC1CCN(C(=O)O[C@H]2CCC[C@@]3(C2)OOC2(O3)C3CC4CC(C3)CC2C4)CC1 (some centres undefined) | 69.6 | 112 (≈ 47.1 µg/mL) | –
